Experiments:
p110 δ = p110 δ (Homo sapiens (Human), UniProt O00329); test: RAJI p110 δ assay (PI3K-δ selective cellular assay, phospho-AKT); type: cell-based; settings: RAJI cells stimulated with anti-human IgM
From the text: A compound's ability in selectively inhibiting PI3K-δ can be assessed using RAJI cells, i.e., B lymphocyte cells derived from lymphoma patients. Briefly, serum-starved RAJI cells are stimulated with anti-human IgM, thereby causing signaling through the B-cell receptors, as described in, for example, He et al., Leukemia Research (2009) 33: 798-802. B-cell receptor signaling is important for the activation, differentiation, and survival of B cells and certain B-cell derived cancers. Reduction of phospho-AKT is indicative of compounds that may inhibit B-cell proliferation and function in certain diseases. By monitoring the reduction of phospho-AKT in stimulated RAJI cells (using for example, phospho-AKT antibodies), a compound's potential efficacy in selectively inhibiting PI3KS can be assessed.

PI3K δ = PI3K δ (Homo sapiens (Human), UniProt O00329); test: PI3-Kinase in vitro IC50 assay, δ isoform; type: biochemical
From the text: (§1) A PI3-Kinase HTRF® assay kit (cat No. 33-016) purchased from Millipore Corporation is used to screen compounds provided herein. This assay uses specific, high affinity binding of the GRP1 pleckstrin homology (PH) domain to PIP3, the product of a Class 1A or 1B PI3 Kinase acting on its physiological substrate PIP2. During the detection phase of the assay, a complex is generated between the GST-tagged PH domain and biotinylated short chain PIP3. The biotinylated PIP3 and the GST-tagged PH domain recruited fluorophores (Streptavidin-Allophycocyanin and Europium-labeled anti-GST respectively) to form the fluorescence resonance energy transfer (FRET) architecture, generating a stable time-resolved FRET signal. The FRET complex is disrupted in a competitive manner by non-biotinylated PIP3, a product formed in the PI3 Kinase assay.
(§2) PI3 Kinase α, β, γ or δ activity is assayed using the PI3 Kinase HTRF®, assay kit (catalogue No. 33-016) purchased from Millipore Corporation. Purified recombinant PI3Kα (catalogue No. 14-602-K), PI3Kβ (catalogue No. 14-603-K), PI3Kγ (catalogue No. 14-558-K), and PI3Kδ (catalogue No. 14-604-K) are obtained from Millipore Corporation. Purified recombinant PI3K enzyme is used to catalyze the phosphorylation of phosphatidylinositol 4,5-bisphosphate (PIP2 at 10 μM) to phosphatidylinositol 3,4,5-trisphosphate (PIP3) in the presence of 10 μM ATP. The assay is carried out in 384-well format and detected using a Perkin Elmer EnVision Xcite Multilabel Reader. Emission ratios are converted into percent inhibitions and imported into GraphPad Prism software. The concentration necessary to achieve inhibition of enzyme activity by 50% (IC50) is calculated using concentrations ranging from 20 μM to 0.1 nM (12-point curve), IC50 values are determined using a nonlinear regression model available in GraphPad Prism 5.
(§3) Promega ADP-Glo Max assay kit (Cat. No. V7002) can be utilized to determine IC50 values for α, β, δ and γ isoforms of human Class I PI3 kinases (Millipore). Samples of kinase (20 nM α or δ, 40 nM β or γ isoform) are incubated with compound for 15 minutes at room temperature in reaction buffer (15 mM HEPES pH 7.4, 20 mM NaCl, 1 mM EGTA, 0.02% Tween 20, 10 mM MgCl2, 0.2 mg/mL bovine-γ-globulins) followed by addition of ATP/diC8-PtdInsP mixture to give final concentrations of 3 mM ATP and 500 uM diC8-PtdInsP. Reactions are incubated at room temperature for 2 hours followed by addition of 25 uL of stop solution. After a 40-minute incubation at room temperature, 50 uL of Promega detection mix is added followed by incubation for 1 hour at room temperature. Plates are then read on Envision plate reader in luminescence mode. Data are converted to % inhibition using the following equation below:
(§4) [formula] where S is the sample luminescence, Pos is a positive control without added PI3K, Neg is the negative control without added compound. Data are then plotted as % inhibition vs compound concentration. Data fit to 4 parameter logistic equation to determine IC50 values: […]

PI3K α = PI3K α (Homo sapiens (Human), UniProt P42336); test: PI3-Kinase in vitro IC50 assay, α isoform; type: biochemical
From the text: as §1, §2, §3, §4

PI3K β = PI3K β (Homo sapiens, UniProt P42338); test: PI3-Kinase in vitro IC50 assay, β isoform; type: biochemical
From the text: A PI3-Kinase HTRF® assay kit (cat No. 33-016) purchased from Millipore Corporation is used to screen compounds provided herein. This assay uses specific, high affinity binding of the GRP1 pleckstrin homology (PH) domain to PIP3, the product of a Class 1A or 1B PI3 Kinase acting on its physiological substrate PIP2. During the detection phase of the assay, a complex is generated between the GST-tagged PH domain and biotinylated short chain PIP3. The biotinylated PIP3 and the GST-tagged PH domain recruited fluorophores (Streptavidin-Allophycocyanin and Europium-labeled anti-GST respectively) to form the fluorescence resonance energy transfer (FRET) architecture, generating a stable time-resolved FRET signal. The FRET complex is disrupted in a competitive manner by non-biotinylated PIP3, a product formed in the PI3 Kinase assay. PI3 Kinase α, β, γ or δ activity is assayed using the PI3 Kinase HTRF®, assay kit (catalogue No. 33-016) purchased from Millipore Corporation. Purified recombinant PI3Kα (catalogue No. 14-602-K), PI3Kβ (catalogue No. 14-603-K), PI3Kγ (catalogue No. 14-558-K), and PI3Kδ (catalogue No. 14-604-K) are obtained from Millipore Corporation. Purified recombinant PI3K enzyme is used to catalyze the phosphorylation of phosphatidylinositol 4,5-bisphosphate (PIP2 at 10 μM) to phosphatidylinositol 3,4,5-trisphosphate (PIP3) in the presence of 10 μM ATP. The assay is carried out in 384-well format and detected using a Perkin Elmer EnVision Xcite Multilabel Reader. Emission ratios are converted into percent inhibitions and imported into GraphPad Prism software. The concentration necessary to achieve inhibition of enzyme activity by 50% (IC50) is calculated using concentrations ranging from 20 μM to 0.1 nM (12-point curve), IC50 values are determined using a nonlinear regression model available in GraphPad Prism 5. Promega ADP-Glo Max assay kit (Cat. No. V7002) can be utilized to determine IC50 values for α, β, δ and γ isoforms of human Class I PI3 kinases (Millipore). Samples of kinase (20 nM α or δ, 40 nM β or γ isoform) are incubated with compound for 15 minutes at room temperature in reaction buffer (15 mM HEPES pH 7.4, 20 mM NaCl, 1 mM EGTA, 0.02% Tween 20, 10 mM MgCl2, 0.2 mg/mL bovine-γ-globulins) followed by addition of ATP/diC8-PtdInsP mixture to give final concentrations of 3 mM ATP and 500 uM diC8-PtdInsP. Reactions are incubated at room temperature for 2 hours followed by addition of 25 uL of stop solution. After a 40-minute incubation at room temperature, 50 uL of Promega detection mix is added followed by incubation for 1 hour at room temperature. Plates are then read on Envision plate reader in luminescence mode. Data are converted to % inhibition using the following equation below: [formula] where S is the sample luminescence, Pos is a positive control without added PI3K, Neg is the negative control without added compound. Data are then plotted as % inhibition vs compound concentration. Data fit to 4 parameter logistic equation to determine IC50 values: [formula]

PI3K γ = PI3K γ (Homo sapiens (Human), UniProt P48736); test: PI3-Kinase in vitro IC50 assay, γ isoform; type: biochemical; settings: for IC50: in vitro; for PI3K δ/PI3K γ IC50 (selectivity): ratio of PI3K δ IC50 to PI3K γ IC50
From the text: as §1, §2, §3, §4

p110 γ = p110 γ (Mus musculus (Mouse), UniProt Q9JHG7); test: Raw264.7 p110 γ assay (PI3K-γ selective cellular assay, phospho-AKT); type: cell-based; settings: for IC50: RAW264.7 cells stimulated with C5a, phospho-AKT; for RAJI δ/Raw264.7 γ IC50 (selectivity): ratio of RAJI p110 δ IC50 to Raw264.7 p110 γ IC50
From the text: A compound's ability in selectively inhibiting PI3K-γ can be assessed using RAW264.7 macrophages. Briefly, serum-starved RAW264.7 cells are stimulated with a known GPCR agonist C5a. See, e.g., Camps et al., Nature Medicine (2005) 11(9):936-943. Cells can be treated with test compounds prior to, simultaneously with, or subsequent to the stimulation by C5a. RAW 264.7 cells respond to the complement component fragment C5a through activation of the C5a receptor, and the C5a receptor activates macrophages and induces cell migration. Test compounds' ability to inhibit C5a-mediated AKT phosphorylation is indicative of selective inhibition of PI3K-γ. Thus, by monitoring the reduction of phospho-AKT in stimulated RAW 264.7 cells (using for example, phospho-AKT antibodies), a compound's potential efficacy in selectively inhibiting PI3Kγ can be assessed.
Certain compounds provided herein were tested in RAW 264.7 cell model using procedures as described above.

Chain of p110 γ (Q9JHG7 whole entry, the tested form may be a part): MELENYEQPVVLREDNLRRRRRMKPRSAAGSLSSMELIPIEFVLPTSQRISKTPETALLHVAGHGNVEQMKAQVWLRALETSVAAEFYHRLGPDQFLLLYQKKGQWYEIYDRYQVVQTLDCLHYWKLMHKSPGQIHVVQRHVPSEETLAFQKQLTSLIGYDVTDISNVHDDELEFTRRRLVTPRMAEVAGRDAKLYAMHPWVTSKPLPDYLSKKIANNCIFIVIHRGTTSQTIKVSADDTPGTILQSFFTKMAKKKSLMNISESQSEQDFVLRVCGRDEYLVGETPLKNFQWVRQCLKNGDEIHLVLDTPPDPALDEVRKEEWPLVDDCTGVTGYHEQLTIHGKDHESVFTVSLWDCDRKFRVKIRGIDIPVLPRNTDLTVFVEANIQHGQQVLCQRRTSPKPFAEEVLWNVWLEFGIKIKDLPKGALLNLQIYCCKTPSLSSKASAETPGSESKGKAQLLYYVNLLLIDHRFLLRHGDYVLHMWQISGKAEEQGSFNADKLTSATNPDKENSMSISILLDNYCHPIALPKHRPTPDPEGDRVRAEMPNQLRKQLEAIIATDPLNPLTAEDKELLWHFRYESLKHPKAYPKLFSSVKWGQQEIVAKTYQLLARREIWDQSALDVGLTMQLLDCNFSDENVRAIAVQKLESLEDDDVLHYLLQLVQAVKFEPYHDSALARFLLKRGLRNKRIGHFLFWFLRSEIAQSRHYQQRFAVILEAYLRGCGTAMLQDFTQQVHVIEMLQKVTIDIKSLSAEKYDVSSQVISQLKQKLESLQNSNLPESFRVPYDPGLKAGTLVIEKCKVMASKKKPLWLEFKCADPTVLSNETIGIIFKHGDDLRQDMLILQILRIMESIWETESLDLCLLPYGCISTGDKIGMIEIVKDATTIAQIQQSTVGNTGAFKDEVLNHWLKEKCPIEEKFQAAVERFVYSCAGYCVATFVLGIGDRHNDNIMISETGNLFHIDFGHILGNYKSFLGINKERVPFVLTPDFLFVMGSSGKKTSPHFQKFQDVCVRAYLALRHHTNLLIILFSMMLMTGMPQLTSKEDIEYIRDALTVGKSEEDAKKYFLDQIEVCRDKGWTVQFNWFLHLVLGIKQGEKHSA
Chain of PI3K β (P42338 whole entry, looked up, the tested form may be a part, canonical isoform): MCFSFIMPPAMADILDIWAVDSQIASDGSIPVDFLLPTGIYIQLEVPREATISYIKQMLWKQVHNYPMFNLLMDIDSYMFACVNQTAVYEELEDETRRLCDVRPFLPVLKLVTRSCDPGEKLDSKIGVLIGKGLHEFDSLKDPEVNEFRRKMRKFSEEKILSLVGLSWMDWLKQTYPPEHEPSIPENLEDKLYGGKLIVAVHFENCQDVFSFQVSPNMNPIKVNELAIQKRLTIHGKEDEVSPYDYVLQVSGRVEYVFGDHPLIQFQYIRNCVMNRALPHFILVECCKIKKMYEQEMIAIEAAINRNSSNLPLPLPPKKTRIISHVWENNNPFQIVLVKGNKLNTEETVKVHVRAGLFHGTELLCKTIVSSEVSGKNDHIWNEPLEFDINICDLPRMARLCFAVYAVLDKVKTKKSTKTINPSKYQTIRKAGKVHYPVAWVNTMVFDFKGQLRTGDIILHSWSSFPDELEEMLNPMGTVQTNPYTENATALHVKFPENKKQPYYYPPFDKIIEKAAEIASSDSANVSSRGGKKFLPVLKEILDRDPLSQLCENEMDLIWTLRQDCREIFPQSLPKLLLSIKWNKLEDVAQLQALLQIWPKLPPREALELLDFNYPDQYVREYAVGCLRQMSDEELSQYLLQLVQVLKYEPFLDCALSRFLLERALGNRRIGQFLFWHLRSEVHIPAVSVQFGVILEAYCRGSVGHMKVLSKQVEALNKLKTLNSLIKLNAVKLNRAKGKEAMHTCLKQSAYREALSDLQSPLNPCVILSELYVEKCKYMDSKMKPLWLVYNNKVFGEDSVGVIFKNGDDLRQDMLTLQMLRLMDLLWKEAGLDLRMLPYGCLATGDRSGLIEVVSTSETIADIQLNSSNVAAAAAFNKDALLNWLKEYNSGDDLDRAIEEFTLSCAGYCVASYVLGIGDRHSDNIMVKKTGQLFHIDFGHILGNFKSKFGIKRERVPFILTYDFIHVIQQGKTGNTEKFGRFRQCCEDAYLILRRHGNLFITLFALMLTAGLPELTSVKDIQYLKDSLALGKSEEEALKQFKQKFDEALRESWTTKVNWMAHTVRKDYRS
Chain of PI3K γ (P48736 whole entry, canonical isoform): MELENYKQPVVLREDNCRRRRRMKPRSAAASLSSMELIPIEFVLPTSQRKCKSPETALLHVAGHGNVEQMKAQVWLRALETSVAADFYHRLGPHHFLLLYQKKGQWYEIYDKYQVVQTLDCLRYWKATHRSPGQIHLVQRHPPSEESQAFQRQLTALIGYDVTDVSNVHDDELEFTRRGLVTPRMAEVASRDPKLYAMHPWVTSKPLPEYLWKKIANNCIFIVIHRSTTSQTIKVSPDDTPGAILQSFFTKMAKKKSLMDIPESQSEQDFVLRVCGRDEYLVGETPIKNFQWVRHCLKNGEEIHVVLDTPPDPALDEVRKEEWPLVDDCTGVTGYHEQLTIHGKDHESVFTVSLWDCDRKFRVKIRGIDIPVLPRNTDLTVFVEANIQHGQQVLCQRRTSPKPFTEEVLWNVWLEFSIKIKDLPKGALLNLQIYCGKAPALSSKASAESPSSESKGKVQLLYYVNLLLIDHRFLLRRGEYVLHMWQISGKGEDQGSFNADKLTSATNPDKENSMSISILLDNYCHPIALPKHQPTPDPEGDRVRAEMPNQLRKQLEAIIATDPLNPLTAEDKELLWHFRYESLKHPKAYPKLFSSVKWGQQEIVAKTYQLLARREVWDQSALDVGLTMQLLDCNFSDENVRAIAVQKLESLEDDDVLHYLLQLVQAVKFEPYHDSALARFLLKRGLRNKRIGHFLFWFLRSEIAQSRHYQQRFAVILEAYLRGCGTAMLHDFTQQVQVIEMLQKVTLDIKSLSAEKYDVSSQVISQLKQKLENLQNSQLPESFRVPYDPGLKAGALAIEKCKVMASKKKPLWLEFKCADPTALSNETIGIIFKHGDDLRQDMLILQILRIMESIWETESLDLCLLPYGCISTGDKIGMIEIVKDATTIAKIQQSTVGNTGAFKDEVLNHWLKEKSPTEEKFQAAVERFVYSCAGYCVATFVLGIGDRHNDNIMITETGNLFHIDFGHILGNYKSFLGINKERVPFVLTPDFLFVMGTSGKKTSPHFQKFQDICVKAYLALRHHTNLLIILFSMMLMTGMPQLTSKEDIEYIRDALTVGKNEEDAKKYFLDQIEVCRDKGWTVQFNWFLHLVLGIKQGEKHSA
Chain of PI3K α (P42336 whole entry, canonical isoform): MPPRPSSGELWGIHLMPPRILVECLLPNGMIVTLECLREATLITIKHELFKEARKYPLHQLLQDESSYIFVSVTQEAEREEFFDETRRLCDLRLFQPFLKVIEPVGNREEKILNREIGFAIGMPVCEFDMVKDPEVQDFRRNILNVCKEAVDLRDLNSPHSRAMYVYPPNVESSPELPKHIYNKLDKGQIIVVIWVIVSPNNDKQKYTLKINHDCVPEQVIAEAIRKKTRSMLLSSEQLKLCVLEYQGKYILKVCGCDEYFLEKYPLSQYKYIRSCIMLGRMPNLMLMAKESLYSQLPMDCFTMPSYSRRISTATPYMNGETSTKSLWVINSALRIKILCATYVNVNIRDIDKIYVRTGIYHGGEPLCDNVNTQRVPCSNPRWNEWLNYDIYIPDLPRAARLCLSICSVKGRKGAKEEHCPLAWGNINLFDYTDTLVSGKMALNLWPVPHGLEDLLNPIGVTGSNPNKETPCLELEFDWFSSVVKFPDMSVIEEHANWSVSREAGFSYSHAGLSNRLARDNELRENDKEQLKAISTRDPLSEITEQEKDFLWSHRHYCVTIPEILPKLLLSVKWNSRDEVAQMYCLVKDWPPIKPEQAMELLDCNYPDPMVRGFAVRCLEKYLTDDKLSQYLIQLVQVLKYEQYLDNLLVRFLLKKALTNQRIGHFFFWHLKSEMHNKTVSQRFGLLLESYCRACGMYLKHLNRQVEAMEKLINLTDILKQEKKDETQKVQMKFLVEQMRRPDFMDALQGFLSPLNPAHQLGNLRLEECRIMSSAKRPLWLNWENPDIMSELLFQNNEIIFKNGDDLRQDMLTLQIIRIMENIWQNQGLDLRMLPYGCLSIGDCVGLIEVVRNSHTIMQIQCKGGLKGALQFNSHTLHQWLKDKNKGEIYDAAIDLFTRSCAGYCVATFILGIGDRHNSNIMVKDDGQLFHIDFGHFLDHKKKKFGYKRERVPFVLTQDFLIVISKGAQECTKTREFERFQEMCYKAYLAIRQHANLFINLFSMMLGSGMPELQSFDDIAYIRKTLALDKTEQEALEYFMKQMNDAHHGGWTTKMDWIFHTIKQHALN
Chain of PI3K α (P27986 whole entry partner, canonical isoform): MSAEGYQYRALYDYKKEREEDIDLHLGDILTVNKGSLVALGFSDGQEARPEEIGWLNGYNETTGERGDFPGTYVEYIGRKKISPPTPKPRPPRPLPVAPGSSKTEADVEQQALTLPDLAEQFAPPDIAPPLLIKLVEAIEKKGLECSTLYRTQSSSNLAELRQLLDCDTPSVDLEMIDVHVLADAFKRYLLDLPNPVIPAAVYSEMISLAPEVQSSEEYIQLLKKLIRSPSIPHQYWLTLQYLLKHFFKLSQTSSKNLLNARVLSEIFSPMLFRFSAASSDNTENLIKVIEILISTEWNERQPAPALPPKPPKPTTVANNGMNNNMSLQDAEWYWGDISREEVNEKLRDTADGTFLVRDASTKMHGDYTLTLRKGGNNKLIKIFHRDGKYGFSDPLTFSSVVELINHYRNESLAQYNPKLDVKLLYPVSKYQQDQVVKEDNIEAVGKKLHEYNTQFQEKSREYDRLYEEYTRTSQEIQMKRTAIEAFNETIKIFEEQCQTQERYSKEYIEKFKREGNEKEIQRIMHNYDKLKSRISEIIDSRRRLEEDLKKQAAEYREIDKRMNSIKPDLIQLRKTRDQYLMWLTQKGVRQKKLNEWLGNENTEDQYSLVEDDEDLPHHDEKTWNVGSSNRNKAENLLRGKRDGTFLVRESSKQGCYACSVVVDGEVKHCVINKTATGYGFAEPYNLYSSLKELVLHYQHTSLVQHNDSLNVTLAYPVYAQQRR

SMILES	IC50 (p110 δ) [µM]	IC50 (PI3K δ) [µM]	IC50 (PI3K α) [µM]	IC50 (PI3K β) [µM]	IC50 (PI3K γ) [µM]	PI3K δ/PI3K γ IC50 (selectivity) (PI3K γ)	IC50 (p110 γ) [µM]	RAJI δ/Raw264.7 γ IC50 (selectivity) (p110 γ)
C[C@@H](NC(=O)c1c(N)nn2cccnc12)c1oc2cccc(C#Cc3cnn(C)c3)c2c(=O)c1-c1ccccc1 [Compound 103R]	1 to 10	5 to 10	5 to 10	5 to 10	> 5	V (V = 0.1 to 1)	0.1 to 10	X (X = 10 to <50)
C[C@H](NC(=O)c1c(N)nn2cccnc12)c1oc2cccc(C#Cc3cnn(C)c3)c2c(=O)c1-c1ccccc1 [Compound 103S]	1 to 10	5 to 10	5 to 10	5 to 10	0.1 to 0.5	X (X = 10 to <50)	0.001 to 0.05	Y (Y = 50 to <850)
CC(NC(=O)c1c(N)nn2cccnc12)c1oc2cccc(C#Cc3cnn(C)c3)c2c(=O)c1-c1ccccc1 (centres unmarked) [Compound 103]	1 to 10	5 to 10	5 to 10	5 to 10	1 to 5	W (W = >1 to <10)	0.05 to 0.1	X (X = 10 to <50)
C[C@@H](NC(=O)c1c(N)nn2cccnc12)c1cc2cccc(C#Cc3cnn(C)c3)c2nc1-c1ccccc1 [Compound 175R]	–	5 to 10	5 to 10	5 to 10	> 5	V (V = 0.1 to 1)	–	–
C[C@H](NC(=O)c1c(N)nn2cccnc12)c1cc2cccc(C#Cc3cnn(C)c3)c2nc1-c1ccccc1 [Compound 175S]	0.1 to 0.5	5 to 10	5 to 10	5 to 10	0.1 to 0.5	X (X = 10 to <50)	0.001 to 0.05	W (W = >1 to <10)
C[C@@H](NC(=O)c1c(N)nn2cccnc12)c1nc2cccc(C#Cc3cnn(C)c3)c2cc1-c1ccccc1 [Compound 181R]	1 to 10	5 to 10	5 to 10	5 to 10	> 5	V (V = 0.1 to 1)	0.1 to 10	V (V = 0.1 to 1)
C[C@H](NC(=O)c1c(N)nn2cccnc12)c1nc2cccc(C#Cc3cnn(C)c3)c2cc1-c1ccccc1 [Compound 181S]	1 to 10	5 to 10	5 to 10	5 to 10	> 5	V (V = 0.1 to 1)	0.1 to 10	Y (Y = 50 to <850)
